Assay type in all cases: cell-based
The subject of one assay is HIV-1 strain 92HT599. The experiment in a line: Antiviral activity against HIV-1 strain 92HT599 in MT2 cells (p24 estimation). The conditions noted are these: HIV-1 92HT599, ~96 hours. In outline:
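Percent inhibition versus vehicle controls came from p24 quantified in supernatant aliquots. These were taken after ~96 h incubation of compound (DMSO ≤1%) with MT2 cells infected at 10 TCID50/30,000 cells.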

In a further assay the test system is HIV-1 pNL4-3 WT. Nature of the assay: Antiviral activity against pNL4-3/WT strain in MT4 cells (p24 estimation). To be noted: Human immunodeficiency virus 1, MT4, 96 h, read-out: pNL4-3 WT IC50. As to the method:
(§1) Example 78: Evaluation of Compounds Antiviral Activity Against pNL4-3/WT & V7A Strains in MT4 Cells
(§2) MT4 cells were Transfected with HIV-1 Plasmid (pNL4-3-WT & V7A) (Cells were incubating with required number of TCID50 of HIV-1 for 1.5 h at 37° C.). After infection, the infected cells were plated at the concentration of 3×10^4 cells per well in 96 well plate. Test compound was added to the test plate in defined format with the final concentration of DMSO is not more than 1%. Incubation was carried out in CO2 incubator for 4 days for viral infection. At the end of incubation period an aliquot from each well was taken for p24 estimation. p24 estimation was carried out using Advance biosciences kit as per the procedure detailed by supplier.

The subject of the next assay is HIV-1 pNL4-3 V7A. Nature of the assay: Antiviral activity against pNL4-3/V7A strain in MT4 cells (p24 estimation). To be noted: Human immunodeficiency virus 1, MT4, 96 h, read-out: pNL4-3 V7A IC50. As to the method:
as §1, §2

Setting [1] is: Human immunodeficiency virus 1, 0% serum binding assay, read-out: IC50 0% serum.
The mark [2] stands for this setting: Human immunodeficiency virus 1, 40% serum binding assay, read-out: IC50 40% serum.

The term IC50 denotes the point on the concentration scale where inhibition reaches its midpoint.

Where two headings read alike, the source gives them in different places. A value given as a limit tells only on which side of the number the result lay.

In the case of `Cc1cn(-c2ccc(C(=O)NC(C)(C)C(=O)N[C@@]34CC[C@]5(C)[C@H](CC[C@@H]6[C@@]7(C)CC[C@H](OC(=O)[C@H]8C[C@@H](C(=O)O)C8(C)C)C(C)(C)[C@@H]7CC[C@]65C)C3=C(C(C)C)C(=O)C4)cc2)cn1` [Example 20, (1R,3S)-3-((((3aR,5aR,5bR,7aR,9S,11aR,11bR,13aS)-1-isopropyl-5a,5b,8,8,11a-pentamethyl-3a-(2-methyl-2-(4-(4-methyl-1H-imidazol-1-yl)benzamido)propanamido)-2-oxo-3,3a,4,5,5a,5b,6,7,7a,8,9,10,11,11a,11b,12,13,13a-octadeca hydro-2H-cyclopenta[a]chrysen-9-yl)oxy)carbonyl)-2,2-dimethylcyclobutane-1-carboxylic acid], the IC50 was below 3 nM in the assay on HIV-1 strain 92HT599 (setting [1]), below 50 nM with HIV-1 strain 92HT599 (setting [2]), above 10 nM in the assay on HIV-1 pNL4-3 WT and above 50 nM in the assay on HIV-1 pNL4-3 V7A.

For `CC(C)C1=C2[C@H]3CC[C@@H]4[C@@]5(C)CC[C@H](OC(=O)[C@H]6C[C@@H](C(=O)O)C6(C)C)C(C)(C)[C@@H]5CC[C@@]4(C)[C@]3(C)CC[C@@]2(NC(=O)C(C)(C)NC(=O)c2ccc(C(F)(F)F)cc2)CC1=O` [Example 25, (1R,3S)-3-((((3aR,5aR,5bR,7aR,9S,11aR,11bR,13aS)-1-isopropyl-5a,5b,8,8,11a-pentamethyl-3a-(2-methyl-2-(4-(trifluoromethyl)benzamido)propan amido)-2-oxo-3,3a,4,5,5a,5b,6,7,7a,8,9,10,11,11a,11b,12,13,13a-octadecahydro-2H-cyclopenta[a]chrysen-9-yl)oxy)carbonyl)-2,2-dimethylcyclobutane-1-carboxylic acid], the IC50 was below 3 nM with HIV-1 strain 92HT599 (setting [1]), below 50 nM in the assay with HIV-1 strain 92HT599 (setting [2]), below 5 nM in the assay on HIV-1 pNL4-3 WT and below 10 nM in the assay with HIV-1 pNL4-3 V7A.

Regarding `CC(C)C1=C2[C@H]3CC[C@@H]4[C@@]5(C)CC[C@H](OC(=O)[C@H]6C[C@@H](C(=O)O)C6(C)C)C(C)(C)[C@@H]5CC[C@@]4(C)[C@]3(C)CC[C@@]2(NC(=O)C(C)(C)NC(=O)c2ccc3ccccc3n2)CC1=O` [Example 28, (1R,3S)-3-((((3aR,5aR,5bR,7aR,9S,11aR,11bR,13aS)-1-isopropyl-5a,5b,8,8,11a-pentamethyl-3a-(2-methyl-2-(quinoline-2-carboxamido)propanamido)-2-oxo-3,3a,4,5,5a,5b,6,7,7a,8,9,10,11,11a,11b,12,13,13a-octadecahydro-2H-cyclopenta[a]chrysen-9-yl)oxy)carbonyl)-2,2-dimethylcyclobutane-1-carboxylic acid], the IC50 is below 3 nM in the assay with HIV-1 strain 92HT599 (setting [1]), below 50 nM in the assay on HIV-1 strain 92HT599 (setting [2]), 5.01 to 10 nM in the assay on HIV-1 pNL4-3 WT and 10 to 50 nM with HIV-1 pNL4-3 V7A.

Turning to `Cc1occc1C(=O)NC(C)(C)C(=O)N[C@@]12CC[C@]3(C)[C@H](CC[C@@H]4[C@@]5(C)CC[C@H](OC(=O)[C@H]6C[C@@H](C(=O)O)C6(C)C)C(C)(C)[C@@H]5CC[C@]43C)C1=C(C(C)C)C(=O)C2` [Example 30, (1R,3S)-3-((((3aR,5aR,5bR,7aR,9S,11aR,11bR,13aS)-1-isopropyl-5a,5b,8,8,11a-pentamethyl-3a-(2-methyl-2-(2-methylfuran-3-carboxamido)propan amido)-2-oxo-3,3a,4,5,5a,5b,6,7,7a,8,9,10,11,11a,11b,12,13,13a-octadecahydro-2H-cyclopenta[a]chrysen-9-yl)oxy)carbonyl)-2,2-dimethylcyclobutane-1-carboxylic acid], the IC50 in the assay on HIV-1 strain 92HT599 (setting [1]) is below 3 nM; in the assay with HIV-1 strain 92HT599 (setting [2]), below 50 nM; in the assay with HIV-1 pNL4-3 WT, 5.01 to 10 nM; in the assay on HIV-1 pNL4-3 V7A, above 50 nM.

These data come from US11034718B2, “C-3 novel triterpenone with C-17 reverse amide derivatives as HIV inhibitors” (HETERO LABS LIMITED, priority 2015, dated 2021).
